Results from PubChem BioAssay AID248 (DTP/NCI, 2004).
Toxic doses and inconclusive results are not listed. Cut-off read from the data, not from the text of the source: active = T/C of 150% or more; inactive = T/C below 125%.

Test system: L1210 leukemia ip in BDF1 mice, survival T/C
Assay: NCI In Vivo Anticancer Drug Screen. Data for tumor model L1210 Leukemia (intraperitoneal) in B6D2F1 (BDF1) mice
Details: endpoint: mean survival time, higher = longer survival
In short: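 Tumor was transplanted into mice, which were then dosed with test compound or vehicle alone. Survival was recorded for each group, and the treated figure was expressed relative to the control figure.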

[1] = dose: 100.0 mg/kg/injection, schedule: Q04DX002 (ip), vehicle: Klucel (hydroxypropylcellulose) (HPC)
[2] = dose: 100.0 mg/kg/injection, schedule: Q01DX001 (ip), vehicle: saline
[3] = dose: 100.0 mg/kg/injection, schedule: Q04DX003 (ip), vehicle: Klucel (hydroxypropylcellulose) (HPC)
[4] = dose: 200.0 mg/kg/injection, schedule: Q04DX003 (ip), vehicle: Klucel (hydroxypropylcellulose) (HPC)
[5] = dose: 400.0 mg/kg/injection, schedule: Q04DX003 (ip), vehicle: Klucel (hydroxypropylcellulose) (HPC)
[6] = dose: 100.0 mg/kg/injection, schedule: Q01DX001 (ip), vehicle: Klucel (hydroxypropylcellulose) (HPC)
[7] = dose: 200.0 mg/kg/injection, schedule: Q01DX001 (ip), vehicle: Klucel (hydroxypropylcellulose) (HPC)
[8] = dose: 100.0 mg/kg/injection, schedule: Q04DX003 (ip), vehicle: saline with Tween-80
[9] = dose: 200.0 mg/kg/injection, schedule: Q04DX003 (ip), vehicle: saline with Tween-80
[10] = dose: 400.0 mg/kg/injection, schedule: Q04DX003 (ip), vehicle: saline with Tween-80
[11] = dose: 100.0 mg/kg/injection, schedule: Q04DX003 (ip), vehicle: saline
[12] = dose: 200.0 mg/kg/injection, schedule: Q04DX003 (ip), vehicle: saline
[13] = dose: 100.0 mg/kg/injection, schedule: Q01DX001 (ip), vehicle: carboxymethylcellulose (CMC)
[14] = dose: 200.0 mg/kg/injection, schedule: Q01DX001 (ip), vehicle: carboxymethylcellulose (CMC)
[15] = dose: 400.0 mg/kg/injection, schedule: Q01DX001 (ip), vehicle: carboxymethylcellulose (CMC)
[16] = dose: 50.0 mg/kg/injection, schedule: Q01DX001 (ip), vehicle: Klucel (hydroxypropylcellulose) (HPC)
[17] = dose: 400.0 mg/kg/injection, schedule: Q01DX001 (ip), vehicle: saline
[18] = dose: 50.0 mg/kg/injection, schedule: Q04DX003 (ip), vehicle: Klucel (hydroxypropylcellulose) (HPC)
[19] = dose: 100.0 mg/kg/injection, schedule: Q01DX009 (ip), vehicle: Klucel (hydroxypropylcellulose) (HPC)
[20] = dose: 200.0 mg/kg/injection, schedule: Q01DX009 (ip), vehicle: Klucel (hydroxypropylcellulose) (HPC)
[21] = dose: 400.0 mg/kg/injection, schedule: Q01DX009 (ip), vehicle: Klucel (hydroxypropylcellulose) (HPC)

Measured: T/C

Cc1c([N+](=O)[O-])cc(C(C)(C)C)c(OC(=O)C(C)(C)C)c1[N+](=O)[O-]
inactive: dose: 25.0 mg/kg/injection, schedule: Q04DX002 (ip), vehicle: Klucel (hydroxypropylcellulose) (HPC) 95 % of control | dose: 50.0 mg/kg/injection, schedule: Q04DX002 (ip), vehicle: Klucel (hydroxypropylcellulose) (HPC) 100 % of control | [1] 92 % of control

CCC(C)(CC=C(C)C)c1ccncc1 (stereo not given)
inactive: [2] 98 % of control

Cc1cccc(SC(=O)Nc2cc([N+](=O)[O-])ccc2C)c1
inactive: [3] 92 % of control | [4] 98 % of control | [5] 97 % of control

O=C1C(=O)c2ccccc2C(O)=C1C(C1=C(O)c2ccccc2C(=O)C1=O)c1ccc(Cl)cc1Cl
inactive: dose: 75.0 mg/kg/injection, schedule: Q01DX001 (ip), vehicle: other 91 % of control | dose: 150.0 mg/kg/injection, schedule: Q01DX001 (ip), vehicle: other 91 % of control | dose: 300.0 mg/kg/injection, schedule: Q01DX001 (ip), vehicle: other 107 % of control

CCOC1(OCC)CC2C(=O)CCCC21OC(C)=O (stereo not given)
inactive: dose: 75.0 mg/kg/injection, schedule: Q04DX002 (ip), vehicle: saline 111 % of control | dose: 150.0 mg/kg/injection, schedule: Q04DX002 (ip), vehicle: saline 105 % of control | dose: 300.0 mg/kg/injection, schedule: Q04DX002 (ip), vehicle: saline 101 % of control

CCOC(=O)CCc1c(C)[nH]c(C(=O)OCC)c1C
inactive: [6] 98 % of control | [3] 92 % of control | [7] 97 % of control | dose: 400.0 mg/kg/injection, schedule: Q01DX001 (ip), vehicle: Klucel (hydroxypropylcellulose) (HPC) 97 % of control | [5] 108 % of control

CC(=O)n1c(O)c(N=Nc2ccccc2[N+](=O)[O-])c2ccccc21
inactive: dose: 100.0 mg/kg/injection, schedule: Q01DX001 (ip), vehicle: other 92 % of control | dose: 200.0 mg/kg/injection, schedule: Q01DX001 (ip), vehicle: other 93 % of control | dose: 400.0 mg/kg/injection, schedule: Q01DX001 (ip), vehicle: other 98 % of control

O=P(CCCl)(OCCCl)OCCCl
inactive: [8] 94 % of control | [9] 109 % of control | [10] 109 % of control

CCCC(=O)NC(=S)Nc1ccccc1
inactive: dose: 75.0 mg/kg/injection, schedule: Q01DX001 (ip), vehicle: carboxymethylcellulose (CMC) 98 % of control

COc1ccc(OC)c(OC)c1CC(C)N (stereo not given)
inactive: dose: 25.0 mg/kg/injection, schedule: Q01DX009 (ip), vehicle: saline 108 % of control | dose: 50.0 mg/kg/injection, schedule: Q01DX009 (ip), vehicle: saline 104 % of control

N#CCCCN1CCOCC1
inactive: [11] 96 % of control | [12] 96 % of control | dose: 400.0 mg/kg/injection, schedule: Q04DX003 (ip), vehicle: saline 104 % of control

c1cc2c(c3c1CCCC3)CCC1CCCCC21 (stereo not given)
inactive: [13] 103 % of control | [14] 95 % of control | [15] 97 % of control

NC(=O)c1ccc(NCc2cnc3nc(N)nc(N)c3n2)cc1
inactive: dose: 20.0 mg/kg/injection, schedule: Q01DX009 (ip), vehicle: Klucel (hydroxypropylcellulose) (HPC) 106 % of control | dose: 40.0 mg/kg/injection, schedule: Q01DX009 (ip), vehicle: Klucel (hydroxypropylcellulose) (HPC) 101 % of control | dose: 80.0 mg/kg/injection, schedule: Q01DX009 (ip), vehicle: Klucel (hydroxypropylcellulose) (HPC) 103 % of control

C=C1c2ccccc2N(C)C1(COc1ccc(Cl)c(C)c1)OC(=O)c1cccc(Cl)c1 (stereo not given)
inactive: [1] 95 % of control | dose: 200.0 mg/kg/injection, schedule: Q04DX002 (ip), vehicle: Klucel (hydroxypropylcellulose) (HPC) 95 % of control | dose: 400.0 mg/kg/injection, schedule: Q04DX002 (ip), vehicle: Klucel (hydroxypropylcellulose) (HPC) 88 % of control

CC(=O)Nc1ccc(/C=N/Nc2c([N+](=O)[O-])cc(C)cc2[N+](=O)[O-])cc1
inactive: dose: 100.0 mg/kg/injection, schedule: Q01DX009 (ip), vehicle: saline 98 % of control | dose: 200.0 mg/kg/injection, schedule: Q01DX009 (ip), vehicle: saline 96 % of control | dose: 400.0 mg/kg/injection, schedule: Q01DX009 (ip), vehicle: saline 94 % of control

CC(C)=CCC/C(C)=C/C#N
inactive: [13] 100 % of control | [14] 111 % of control | [15] 94 % of control

O=C1C=C(N2C3C4CCC(C4)C32)C(=O)C=C1c1ccccc1 (stereo not given)
inactive: [16] 96 % of control | [6] 97 % of control | [7] 94 % of control

COc1ccc(/C=C(/C)[N+](=O)[O-])cc1OC
inactive: [16] 98 % of control | dose: 50.0 mg/kg/injection, schedule: Q01DX009 (ip), vehicle: saline with Tween-80 91 % of control | [6] 94 % of control | [2] 93 % of control | dose: 100.0 mg/kg/injection, schedule: Q01DX009 (ip), vehicle: saline with Tween-80 115 % of control | [3] 97 % of control | [7] 103 % of control | dose: 200.0 mg/kg/injection, schedule: Q01DX009 (ip), vehicle: saline with Tween-80 100 % of control | [4] 102 % of control | [17] 98 % of control | [5] 97 % of control

COC(=O)CC1=C(C)CCc2cc3c(cc21)sc1ccccc13
inactive: [2] 94 % of control | dose: 200.0 mg/kg/injection, schedule: Q01DX001 (ip), vehicle: saline 94 % of control | [17] 101 % of control

COCC(=O)Nc1ccc(Cl)c(Cl)c1
inactive: [13] 100 % of control | [14] 92 % of control | [15] 97 % of control

O=C(O)c1cc(S(=O)(=O)Cl)ccc1Cl
inactive: [18] 105 % of control | [13] 95 % of control | [3] 92 % of control | [14] 104 % of control

CC1(C)N=C(N)N=C(N)N1NC(=O)c1cccc(Cl)c1
inactive: [11] 101 % of control | [12] 94 % of control

O=C(O)Cc1ccc(N=Nc2c(O)c(C(=O)O)cc3ccccc23)cc1
inactive: [19] 96 % of control | [3] 93 % of control | [20] 105 % of control | [4] 100 % of control | [21] 100 % of control | [5] 103 % of control

Cc1sc2ccc3ccccc3c2[n+]1C
inactive: [18] 105 % of control | dose: 75.0 mg/kg/injection, schedule: Q01DX001 (ip), vehicle: saline 103 % of control | [3] 109 % of control | dose: 150.0 mg/kg/injection, schedule: Q01DX001 (ip), vehicle: saline 111 % of control

COc1cccc(/C=c2\[nH]c(=O)/c(=C/c3cccc(OC)c3OC)[nH]c2=O)c1OC
inactive: [19] 94 % of control | [3] 88 % of control | [20] 87 % of control | [4] 91 % of control | [21] 96 % of control | [5] 91 % of control

N#CCC[P+](CCC#N)(CCC#N)CCCC[P+](CCC#N)(CCC#N)CCC#N
inactive: [8] 94 % of control | [9] 91 % of control | [10] 94 % of control
